Literature values in patent publication US20100183693A1 (priority 2005, published 2010).
Entries after “also recorded” stand apart in the source; their conditions may differ. Read-outs that look alike come from different tables or passages of the source.

Row | Compound | Effectiveness of Biocides (rank order) (pH 6.8) | Effectiveness of Biocides (rank order) (pH 8)
1 | CC1(C)C(=O)N(Cl)C(=O)N1Br [BCDMH, bromo-chlorodimethyl hydantoin] | BCDMH < ozone; also recorded: ClO2 < HOCl + NaBr < BCDMH < Cl2 < | HOCl + NaBr < ClO2 < BCDMH < Cl2 <
2 | [O][Cl+][O-] [ClO2, chlorine dioxide] | Cl2 < NaOCl < HOCl + NaBr < ClO2 <; also recorded: ClO2 < HOCl + NaBr < BCDMH < Cl2 < | HOCl + NaBr < ClO2 < BCDMH < Cl2 <
3 | [Na+].[O-]Cl [NaOCl] | Cl2 < NaOCl < HOCl + NaBr < ClO2 <; also recorded: NaOCl < ozone | NaOCl < ozone
4 | O=[O+][O-] [Sample O3, ozone] | BCDMH < ozone; also recorded: NaOCl < ozone | NaOCl < ozone
